This assay has as its target T1, Mtb dihydrofolate reductase (DHFR) (Mycobacterium tuberculosis, UniProt P9WNX1).
T1 construct: gene folA; recombinant, 6-histidine tag at the amino terminus
T1 sequence (P9WNX1 1-161): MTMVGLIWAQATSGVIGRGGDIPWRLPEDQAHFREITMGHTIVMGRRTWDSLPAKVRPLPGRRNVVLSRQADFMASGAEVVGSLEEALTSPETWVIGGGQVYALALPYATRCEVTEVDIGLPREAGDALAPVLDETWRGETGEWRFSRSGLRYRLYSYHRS
Type of assay: biochemical.

Each structure is given as a SMILES string.

Among the data in article PMC3386958, “High-throughput Screening and Sensitized Bacteria Identify an M. tuberculosis Dihydrofolate Reductase Inhibitor with Whole Cell Activity” (PLoS ONE, 2012) are IC50 values, retold here.

As usually defined, the IC50 is the concentration needed to halve the response being measured. A lower IC50 goes with greater potency in that assay. Compound `Nc1nc(N)c2cc(C(F)(F)F)ccc2n1` [NC00094221] came in with an IC50 of 22.4 nM.
